# Assay results from patent publication US20180051346A1, “METHODS AND MEANS FOR SUBTYPING INVASIVE LOBULAR BREAST CANCER” (Stichting Het Nederlands Kanker Instituut-Antoni van …, priority 2015, published 2018).
# System: ILC cell lines
# Test: Drug sensitivity on the Sanger cell line panel, differential response between IR and HR subtype cell lines
# Format: cell-based
# Conditions: IR subtype cell lines (10) vs HR subtype cell lines (5); two-sided t-test between the AUC of the dose-response curves; Sanger response data (Garnett et al., 2012)
# Protocol: Drug sensitivity was assessed on the Sanger cell line panel (internal version 17). We used the cell lines common in our ILC cell line panel and in the Sanger cell line panel. We used cell line AU565 instead of SK-BR-3, which is derived from the same patient. Among the 262 drugs, we focused our assessment on 88 agents that had measurement in at least three cell lines per subtype. With this dataset, we performed a two-sided t-test between the AUC of the dose-response curves of the cell lines in the two subtypes, correcting for multiple testing with the Benjamini-Hochberg method.
# To identify candidate therapeutic options, we profiled a set of 15 ILC cell lines as in vitro models. We used their gene expression profiles to map them to the IR (10 cell lines) and HR (5 cell lines). We then used the response data for 88 drugs on a subset of these cell lines, as provided by the Wellcome Trust Sanger Institute (Garnett et al., 2012. Nature 483: 570-575), to test for differential drug sensitivity between the subtypes. We retained six drugs at an FDR<0.25 (FIG. 2).
row,Molecule,differential drug sensitivity between the subtypes
1,N.N.[Cl][Pt][Cl] [Cisplatin],more sensitive
2,"CCc1c2c(nc3ccc(O)cc13)-c1cc3c(c(=O)n1C2)COC(=O)[C@]3(O)CC [SN-38, (+)-(4S)-4,11-diethyl-4,9-dihydroxy-1H-pyrano[3′,4′:6,7]-indolizino[1,2-b]quinoline-3,14(4H,12H)-dione]",more sensitive
3,Bleomycin,more sensitive
